Assay results published in patent US6255273A, “Hydrofluoropolyether-based azeotropic or near azeotropic compositions” (Ausimont S.p.A., priority 1998, dated 2001).

Assays:
[1] = Kauri-butanol index, modified ASTM D1133-86; format: physicochemical
Method: The solvent effect of the HFPE-based mixtures is evaluated by determination of the Kauri-butanol index, reported in Table 19, according to ASTM […]-86 method. […] The Kauri-butanol solution is stirred by a magnetic stirrer. The end titration point is identified in connection with a diffused turbidity which appears in the Kauri-butanol solution due to the resin separation.

[2] = oily product removal from molded circuits, oil (4); conditions: 23° C.; methyl alcohol mixture 51° C., tDCE mixture 25° C., acetone mixture 66° C.; 5 min dipping
Method: (§1) The oily product removal capacity from molded circuits has been verified according to the following method: a known amount of an oily product is uniformly spread on the molded circuit surface having 35×19 mm sizes; 0.100 g of oil are spread on a single surface of the circuit, then the article is dipped in the solution to be tested.
(§2) After 5 minutes of dipping, the circuit is allowed to drie for further 5 minutes at room temperature so as to remove the solvent traces and then it is weighed again on an analytical balance.
(§3) The following oily products have been used:
4) Mineral-Clavus 32 oil by SHELL.
(§4) Tests are carried out at room temperature (23-250° C.) and tests at the boiling temperature of the solvent mixtures. In the latter case the solvent is placed in a vessel equipped with a refrigerant under reflux which recovers the vapour of the boiling solution.
(§5) In all the tests 30 ml of solvent solution have been used.

[3] = oily product removal from molded circuits, oil (1); conditions: 23° C.; methyl alcohol mixture 51° C., tDCE mixture 25° C., acetone mixture 66° C.; 5 min dipping
Method: as §1, §2, §3
1) Alkyl Benzene-Zerice S 46 oil by ESSO
as §4, §5

[4] = background; cited from earlier work
[5] = oily product removal from molded circuits, oil (3); conditions: 23° C.; methyl alcohol mixture 51° C., tDCE mixture 25° C., acetone mixture 66° C.; 5 min dipping
Method: as §1, §2, §3
3) Ester-Icematic SW 100 oil by CASTROL
as §4, §5

rats [6] = experiment: Acute toxicity in rats by inhalation; format: in vivo; conditions: 4 hours
[7] = water removal from glass surfaces; conditions: with 600 ppm by weight surfactant; CFC 113 42° C., HCFC123 mixture 23° C., tDCE mixture 35° C.
Method: In a cylindrical container having a 46 cm diameter and a 56 cm height, equipped with a neoprene closing stopper (cover), 30 ml of the solution to be tested are introduced.
The compositions, indicated in Table 22, used for the water removal tests are prepared in a 50 ml flask and are heated in a thermostatic bath at a temperature of about 5° C. lower than the boiling temperature of the solution itself.
After heating the solution is transferred in the test container equipped with cover.
On a glass surface having 37×25×1 mm sizes, 0.015 g of water are deposited in the form of small drops.
The glass is placed on a metal frame which is used to carry out the article dipping in the liquid phase of the solution to be tested.
The container for the test is opened and the frame is slowly dipped into the solution; the frame upper part runs in a hole made in the rubber cover (cap) which closes the container.
When two minutes have elapsed, the frame is lifted from the liquid phase, by letting run the external end part through the hole present in the cover (cap); the glass will remain exposed to the solution vapours for one minute, then it is removed from the container and weighed.

[8] = oily product removal from molded circuits, oil (2); conditions: 23° C.; methyl alcohol mixture 51° C., tDCE mixture 25° C., acetone mixture 66° C.; 5 min dipping
Method: as §1, §2, §3, §4, §5

[9] = Hydrofluoropolyether chemical-physical characteristics (Table 1); format: physicochemical; conditions: for BOILING TEMPERATURE / Evaporation latent heat: at 1.013 bar; for Isotherm evaporation speed / Surface pressure: at 20° C.; for Liquid density: at 25° C.; for Flammability in air: in air (% volume)
[10] = evaluation of the boiling temperature at the pressure of 1.013 bar (binary mixtures); format: physicochemical
rats [11] = experiment: Acute toxicity in rats per os; format: in vivo; design: unit not given here
[12] = Table 7, HCF2 OCF2 OCF2 H/HFC 356 ffa, number in label = % by wt. HCF2 OCF2 OCF2 H
[13] = Table 2, HCF2 OCF2 OCF2 H/HCFC 123, number in label = % by wt. HCF2 OCF2 OCF2 H
[14] = Table 12, HCF2 OCF2 CF2 OCF2 H/acetone, number in label = % by wt. HCF2 OCF2 CF2 OCF2 H
[15] = Table 13, HCF2 OCF2 CF2 OCF2 H/methyl alcohol, number in label = % by wt. HCF2 OCF2 CF2 OCF2 H
[16] = Table 15, HCF2 OCF2 CF2 OCF2 H/tDCE, number in label = % by wt. HCF2 OCF2 CF2 OCF2 H
[17] = Table 16, HCF2 OCF2 CF2 OCF2 H/ethyl alcohol, number in label = % by wt. HCF2 OCF2 CF2 OCF2 H
[18] = Table 5, HCF2 OCF2 OCF2 H/acetone, number in label = % by wt. HCF2 OCF2 OCF2 H
[19] = Table 6, HCF2 OCF2 OCF2 H/HFC 365 mfc, number in label = % by wt. HCF2 OCF2 OCF2 H
[20] = Table 8, HCF2 OCF2 OCF2 H/metoxymethyl methyl ether, number in label = % by wt. HCF2 OCF2 OCF2 H
[21] = Table 10, HCF2 OCF2 OCF2 H/tDCE, number in label = % by wt. HCF2 OCF2 OCF2 H

FC(F)(Cl)C(F)(Cl)Cl [CFC 113, 1,1,2-trichloro-1,2,2-trifluoroethane]
Kauri-butanol index [1]: 31
Percentage of removed oil, oil (4) Mineral-Clavus 32 [2]: 100 % by weight
Percentage of removed oil, oil (1) Alkyl Benzene-Zerice S 46 [3]: 100 % by weight
flammability [4]: non flammable
stability [4]: stable
toxicity [4]: non toxic
Percentage of removed oil, oil (3) Ester-Icematic SW 100 [5]: 100 % by weight
Acute toxicity in rats by inhalation, LC50 (rats [6]): 50000 ppmv/4 hours
removed water [7]: 100 % by weight
Percentage of removed oil, oil (2) FluoroSilicone-FS 1265 [8]: 99.5 % by weight
BOILING TEMPERATURE [9]: 47.55 °C
Evaporation latent heat [9]: 144 kJ/kg
Isotherm evaporation speed [9]: 1 mg/min
Surface pressure [9]: 18.1 dynes/cm
Liquid density [9]: 1.56 g/mL
Flammability in air [9]: non

FC(F)(F)CCC(F)(F)F [HFC 356 ffa, 1,1,1,4,4,4-hexafluorobutane, reference compound]
BOILING TEMPERATURE [10, 12]: 24.71 °C

CC(F)(Cl)Cl [HCFC 141b]
flammability [4]: moderately flammable

FC(F)(F)C(Cl)Cl [HCFC 123, 1,1-dichloro-2,2,2-trifluoroethane, reference compound]
BOILING TEMPERATURE [10, 13]: 27.54 °C

FC(F)OC(F)(F)C(F)(F)OC(F)F [HFPE2, 1-difluoromethoxy-1,1,2,2-tetrafluoroethyl difluoromethyl ether]
BOILING TEMPERATURE ([10]; Table 11, HCF2 OCF2 CF2 OCF2 H/n-pentane, number in label = % by wt. HCF2 OCF2 CF2 OCF2 H): 58.21 °C
BOILING TEMPERATURE [10, 14]: 58.21 °C
BOILING TEMPERATURE [10, 15]: 58.21 °C
BOILING TEMPERATURE ([10]; Table 14, HCF2 OCF2 CF2 OCF2 H/n-hexane, number in label = % by wt. HCF2 OCF2 CF2 OCF2 H): 58.21 °C
BOILING TEMPERATURE [10, 16]: 58.21 °C
BOILING TEMPERATURE [10, 17]: 58.21 °C
Acute toxicity in rats by inhalation, LC50 (rats [6]): > 32000 ppmv/4 hours
Acute toxicity in rats per os, LD50 (rats [11]): > 5000
BOILING TEMPERATURE [9]: 58.21 °C
Evaporation latent heat [9]: 139 kJ/kg
Isotherm evaporation speed [9]: 0.6 mg/min
Surface pressure [9]: 15.5 dynes/cm
Liquid density [9]: 1.60 g/mL
Flammability in air [9]: non flammable

CC(C)=O [acetone, dimethyl ketone, reference compound]
BOILING TEMPERATURE [10, 18]: 56.50 °C
BOILING TEMPERATURE [10, 14]: 56.50 °C

FC(F)OC(F)(F)OC(F)F [HFPE1, difluoromethoxy-bis(difluoromethyl ether)]
BOILING TEMPERATURE [10, 13]: 35.39 °C
BOILING TEMPERATURE ([10]; Table 3, HCF2 OCF2 OCF2 H/n-pentane, number in label = % by weight HCF2 OCF2 OCF2 H): 35.39 °C
BOILING TEMPERATURE ([10]; Table 4, HCF2 OCF2 OCF2 H/iso-pentane, number in label = % by wt. HCF2 OCF2 OCF2 H): 35.39 °C
BOILING TEMPERATURE [10, 18]: 35.39 °C
BOILING TEMPERATURE [10, 19]: 35.39 °C
BOILING TEMPERATURE [10, 12]: 35.39 °C
BOILING TEMPERATURE [10, 20]: 35.39 °C
BOILING TEMPERATURE ([10]; Table 9, HCF2 OCF2 OCF2 H/n-hexane, number in label = % by wt. HCF2 OCF2 OCF2 H): 35.39 °C
BOILING TEMPERATURE [10, 21]: 35.39 °C
Acute toxicity in rats by inhalation, LC50 (rats [6]): > 32000 ppmv/4 hours
Acute toxicity in rats per os, LD50 (rats [11]): > 5000
BOILING TEMPERATURE [9]: 35.39 °C
Evaporation latent heat [9]: 165 kJ/kg
Isotherm evaporation speed [9]: 1.5 mg/min
Surface pressure [9]: 14.0 dynes/cm
Liquid density [9]: 1.54 g/mL
Flammability in air [9]: non flammable

CO [methyl alcohol, reference compound]
BOILING TEMPERATURE [10, 15]: 65.00 °C

COCOC [metoxymethyl methyl ether, methoxymethyl methyl ether, reference compound]
BOILING TEMPERATURE [10, 20]: 41.96 °C

CCO [ethyl alcohol, reference compound]
BOILING TEMPERATURE [10, 17]: 78.50 °C

Cl/C=C/Cl [tDCE, trans 1,2-dichloroethylene, reference compound]
BOILING TEMPERATURE [10, 21]: 46.70 °C
BOILING TEMPERATURE [10, 16]: 46.79 °C

CC(F)(F)CC(F)(F)F [HFC 365 mfc, 1,1,1,3,3-pentafluorobutane, reference compound]
BOILING TEMPERATURE [10, 19]: 40.09 °C
